In PubChem BioAssay (NCI):
“And” between values parts separate entries of the source, which are not always exact repeats. Identical values can stand only once.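 How tested: cells in 96-well plates exposed to compound for 48 hours at five concentrations. GI50 marks 50% less growth. The concentration for full growth arrest is given as TGI.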 Where a SMILES comes first, the peptide text is derived from it. Side-chain parts run from the residue outwards. The star is where a group is joined. Cbz = O=C(OCc1ccccc1)*; Boc = CC(C)(C)OC(=O)*

Key:
Assay in all cases: DTP human tumour cell line panel, 48 h
SK-MEL-5 melanoma = tested on: SK-MEL-5 melanoma
HT29 colon = tested on: HT29 colon
MOLT-4 leukemia = tested on: MOLT-4 leukemia
HOP-62 NSCLC = tested on: HOP-62 NSCLC
SK-OV-3 ovarian = tested on: SK-OV-3 ovarian
NCI-H226 lung = tested on: NCI-H226 lung
HS 578T breast = tested on: HS 578T breast
DU-145 prostate = tested on: DU-145 prostate
NCI-H23 lung = tested on: NCI-H23 lung
MDA-N = tested on: MDA-N

| Compound | TGI (SK-MEL-5 melanoma) | TGI (HT29 colon) [µM] | TGI (MOLT-4 leukemia) [µM] | TGI (HOP-62 NSCLC) [µM] | TGI (SK-OV-3 ovarian) [µM] | TGI (NCI-H226 lung) [µM] | TGI (HS 578T breast) [µM] | TGI (DU-145 prostate) [µM] | TGI (NCI-H23 lung) [µM] | GI50 (NCI-H226 lung) [µM] | GI50 (SK-MEL-5 melanoma) [µM] | GI50 (HS 578T breast) [µM] | GI50 (DU-145 prostate) [µM] | GI50 (HT29 colon) [µM] | GI50 (MOLT-4 leukemia) [µM] | GI50 (HOP-62 NSCLC) [µM] | GI50 (SK-OV-3 ovarian) [µM] | GI50 (NCI-H23 lung) [µM] | TGI (MDA-N) [µM] |
| --- | --- | --- | --- | --- | --- | --- | --- | --- | --- | --- | --- | --- | --- | --- | --- | --- | --- | --- | --- |
| COc1cc(C(O)C(=O)c2cnc3cc([N+](=O)[O-])ccc3n2)ccc1O (stereo unspecified) | > 100 µM | > 100 | > 100 | > 100 | > 100 | – | – | – | – | – | – | – | – | – | – | – | – | – | – |
| O=C(CC(c1ccccc1)C(C(=O)c1ccncc1)C(CC(=O)c1ccncc1)c1ccccc1)c1ccncc1 (stereo unspecified) | – | > 100 | > 100 | > 100 | 61.1 | > 100 | > 100 | > 100 | > 100 | – | – | – | – | – | – | – | – | – | – |
| O=C(CSCC(=O)N/N=C\c1ccccc1F)N/N=C\c1ccccc1F | > 100 µM | > 100 | > 100 | – | > 100 | > 100 | > 100 | > 100 | > 100 | – | – | – | – | – | – | – | – | – | – |
| COc1cc(/C(=C2/O[C@@H]([C@H]3COC(C)(C)O3)[C@H]3OC(C)(C)O[C@@H]23)c2ccc3c(c2)OCO3)cc(OC)c1OC | > 25 µM | > 25 | > 25 | > 25 | > 25 | > 25 | > 25 | > 25 | > 25 | > 25 | 13 | > 25 | > 25 | > 25 | > 25 | > 25 | > 25 | > 25 | – |
| CC(C)(C)OC(=O)NC(CCCCNC(=O)CNC(=O)OCc1ccccc1)C(=O)NC(CCCCNC(=O)CNC(=O)OCc1ccccc1)C(=O)NC(CCCCNC(=O)CNC(=O)OCc1ccccc1)C(=O)NC(CCCCNC(=O)CNC(=O)OCc1ccccc1)C(=O)O (stereo unspecified) (Boc-K([Gly-Cbz])K([Gly-Cbz])K([Gly-Cbz])K([Gly-Cbz])-OH; configuration not given here) | > 100 µM | > 100 | > 100 | > 100 | – | > 100 | – | > 100 | > 100 | – | – | – | – | – | – | – | – | – | > 100 |
| O=C(NN1C(=O)C(Cl)C1c1ccccc1Cl)c1ccccc1O (stereo unspecified) | > 100 µM | > 100 | > 100 | – | > 100 | > 100 | – | – | – | – | – | – | – | – | – | – | – | – | – |
| COc1cc(O)cc(O)c1C(=O)CC(Cl)(Cl)Cl | > 100 µM | > 100 | > 100 | > 100 | > 100 | > 100 | > 100 | > 100 | > 100 | – | – | – | – | – | – | – | – | – | – |
| OC1(c2ccc(Cl)cc2)c2c(c3ccccc3c3ccccc23)C2=NCCN21 (stereo unspecified) | > 100 µM | 35.5 | > 100 | 24.2 | 31.3 | – | 18.6 | 45.6 | 24.5 | – | – | – | – | – | – | – | – | – | 51.1 |
| O=C(Nc1ccc(Sc2ccc(N=Nc3c(O)c(S(=O)(=O)O)cc4cc(S(=O)(=O)O)ccc34)cc2)cc1)c1ccc(N=Nc2c(O)c(S(=O)(=O)O)cc3cc(S(=O)(=O)O)ccc23)cc1 | 53.9 µM | > 100 | 36.8 | > 100 | > 100 | > 100 | – | – | 61.2 | – | – | – | – | – | – | – | – | – | – |
| Cn1nc2ccc3nccc(NCCNCCO)c3c2n1 | > 100 µM | 70 | 69 | > 100 | > 100 | 85.8 | – | – | > 100 | – | – | – | – | – | – | – | – | – | – |
| COc1cc([C@@H]2c3cc4c(cc3[C@@H](c3c(O)cc(O)c5c3O[C@H](c3ccc(O)c(O)c3)[C@H](OC(=O)c3cc(O)c(O)c(O)c3)C5)[C@H]3COC(=O)[C@H]23)OCO4)cc(OC)c1O | 78.4 µM | 65.3 | > 100 | > 100 | > 100 | – | > 100 | > 100 | > 100 | – | – | – | – | – | – | – | – | – | > 100 |
| COc1cc2c(c(OC)c1OC)-c1ccc(SC)c(=O)cc1[C@@H](NCc1cccc([N+](=O)[O-])c1)CC2 | – | < 0.01 | > 100 | – | > 100 | < 0.01 | – | – | < 0.01 | – | – | – | – | – | – | – | – | – | – |
| CCN(CC)c1ccc2cc(C(N)=O)c(=Nc3ccc(F)cc3)oc2c1 | > 100 µM | > 100 | > 100 | > 100 | > 100 | > 100 | > 100 | – | > 100 | – | – | – | – | – | – | – | – | – | > 100 |
| O=NN1C(c2ccccc2)CCCC1c1ccccc1 (stereo unspecified) | > 100 µM | > 54.8 | > 100 | > 100 | > 82.3 | > 100 | – | – | > 100 | – | – | – | – | – | – | – | – | – | – |
| CC1=NN(C(=O)Cc2ccccc2)C(=O)/C1=C\c1ccccc1O | > 100 µM | > 100 | > 100 | > 100 | > 100 | > 100 | – | – | > 100 | – | – | – | – | – | – | – | – | – | – |
| COc1cc2c(c(OC)c1OC)-c1ccc(SC)c(=O)cc1[C@@H](NC(=O)c1ccc([N+](=O)[O-])cc1)CC2 | 3.79 µM and 1.59 µM | – | – | – | 0.0575 | – | – | – | – | – | – | – | – | < 0.0025 | – | – | – | – | – |
| O=C(c1ccccc1O)c1cc(-c2ncc3c(=O)c4ccccc4oc3n2)c(-c2ccccc2O)[nH]c1=O | 25.8 µM | 77.6 | 61.9 | 52.6 | 85.2 | 32.7 | – | – | 50.1 | – | – | – | – | – | – | – | – | – | – |
